≈ marks a conversion by molar mass, not a printed value. Where “and” joins values, the source holds several entries; their conditions need not be identical. Equal entries are not always repeated. Where two headings read alike, the source gives them in different places.
What was measured:
E. coli Juhl [1] = experiment: PD50 (mice, im); format: in vivo; details: Escherichia coli
[2] = Blood Level (im, 20mg/kg); format: in vivo; details: for half-life / Cmax: blood; for Cmax: read-out: Blood Level peak conc.
S. aureus Smith [3] = experiment: PD50 (mice, im); format: in vivo; details: Staphylococcus aureus
[4] = test system: Gram-negative (Gn-I), cephalothin-sensitive, 13 strains; experiment: Mean % relative activity to carbenicillin from geometric mean MIC; format: cell-based; details: for Mean % relative activity (carbenicillin = 100%): Gram-negative (Gn-I), 13 strains, from geometric mean of MIC
Experimental: (§1) Minimum inhibitory concentrations (MIC) of BB-P 652, BB-P 660 and BB-P 661 were determined by serial two-fold agar dilution method using Steer's apparatus on Mueller-Hinton agar plates against S. aureus (6 strains), cephalothinsensitive gram-negative (Gn-I, 13 strains), cephalothinresistant gram-negative (Gn-II, 6 strains) and Ps. aeruginosa (64 strains). The results are shown in Tables 1 and 2 along with piperacillin and carbenicillin.

S. aureus (6 strains) = experiment: as above; format: cell-based; details: from geometric mean of MIC
Experimental: as §1

[5] = test system: Gram-negative (Gn-II), cephalothin-resistant, 6 strains; experiment: as above; format: cell-based; details: for Mean % relative activity (carbenicillin = 100%): Gram-negative (Gn-II), 6 strains, from geometric mean of MIC
Experimental: as §1

[6] = test system: Ps. aeruginosa (64 strains); experiment: as above; format: cell-based; details: for Mean % relative activity (carbenicillin = 100%): Ps. aeruginosa, 64 strains, from geometric mean of MIC
Experimental: as §1

P. mirabilis A9900 = experiment: MIC, serial two-fold agar dilution, Mueller-Hinton agar; format: cell-based; details: Proteus mirabilis
Experimental: as §1

K. pneumoniae A9977 = experiment: as above; format: cell-based; details: Klebsiella pneumoniae
Experimental: as §1

P. aeruginosa A9843 = experiment: as above; format: cell-based; details: Pseudomonas aeruginosa
Experimental: as §1

E. cloacae A9656 = experiment: as above; format: cell-based; details: Enterobacter cloacae
Experimental: as §1

S. aureus Smith [7] = experiment: as above; format: cell-based; details: Staphylococcus aureus
Experimental: as §1

P. vulgaris A9539 = experiment: as above; format: cell-based; details: Proteus vulgaris
Experimental: as §1

S. aureus BX-1633 = experiment: as above; format: cell-based; details: Staphylococcus aureus, BX1633
Experimental: as §1

P. aeruginosa A15150 = experiment: as above; format: cell-based; details: Pseudomonas aeruginosa
Experimental: as §1

E. coli Juhl [8] = experiment: as above; format: cell-based; details: Escherichia coli
Experimental: as §1

P. aeruginosa = experiment: MIC, serial two-fold agar dilution, Mueller-Hinton agar (third P. aeruginosa line, strain not given); format: cell-based; details: Pseudomonas aeruginosa
Experimental: as §1

Ps. aerug. A9843 = experiment: PD50 (mice, im); format: in vivo; details: for ED50: Mus musculus
gram-positive bacteria = experiment: In vitro activity against gram-positive bacteria (summary of MIC); format: cell-based; details: in words
Experimental: as §1

gram-negative bacteria = experiment: In vitro gram-negative activity of the isomers (summary of MIC); format: cell-based; details: in words
Experimental: as §1

Pseudomonas = experiment: Antipseudomonal activity of HPLC fractions; format: cell-based; details: fractions of preparative HPLC of crude BB-P661
From the text: The result is shown below:

[9] = E. coli Juhl, agar dilution, Mueller-Hinton agar, read-out: MIC
[10] = P. aeruginosa A9843, agar dilution, Mueller-Hinton agar, read-out: MIC

Compound | ED50 (E. coli Juhl [1]) [mg/kg] | half-life ([2]; im, 20 mg/kg) [min] | Cmax ([2]; im, 20 mg/kg, im) [ng/mL] | ED50 (S. aureus Smith [3]) [mg/kg] | Mean % relative activity (carbenicillin = 100%) [4] [%] | Mean % relative activity (carbenicillin = 100%) (S. aureus (6 strains)) [%] | Mean % relative activity (carbenicillin = 100%) [5] [%] | Mean % relative activity (carbenicillin = 100%) [6] [%] | MIC (P. mirabilis A9900) [µg/mL] | MIC (K. pneumoniae A9977) [µg/mL] | MIC (E. cloacae A9656) [µg/mL] | MIC (S. aureus Smith [7]) [µg/mL] | MIC (P. vulgaris A9539) [µg/mL] | MIC (S. aureus BX-1633) [µg/mL] | MIC (P. aeruginosa A15150) [µg/mL] | MIC (E. coli Juhl [8]; [9]) [µg/mL] | MIC (P. aeruginosa) [µg/mL] | ED50 (Ps. aerug. A9843) [mg/kg] | activity against gram-positive bacteria, compared with each other (gram-positive bacteria) | MIC (P. aeruginosa A9843; [10]) [µg/mL] | also measured
CCN1CCN(C(=O)NC(C(=O)N[C@@H]2C(=O)N3[C@@H]2SC(C)(C)[C@@H]3C(=O)O)c2ccc(O)c(O)c2)C(=O)C1=O (mixture of isomers) [BB-P 652, Sodium 6-[DL-α-(4-ethyl-2,3-dioxo-1-piperazinocarboxamido)-α-3,4-dihydroxyphenylacetamido]penicillanate] | 1.8 | 32 | 8300 | 4.5 | 1780 | 25 | 112 | 271 | 0.8 | 0.05 | 1.6 | 6.3 | 0.8 | 12.5 | 50 | 0.8 | 6.3 | 30 | almost as active as each other | – | Blood Level half life ([2]; im, 20 mg/kg): 39 min; Blood Level peak conc. ([2]; im, 20 mg/kg): 4500 ng/mL; MIC (P. aeruginosa A9843; A9843): 3.1 µg/mL; potency against gram-positive bacteria, compared with piperacillin (gram-positive bacteria): less potent than piperacillin
CCN1CCN(C(=O)N[C@H](C(=O)N[C@@H]2C(=O)N3[C@@H]2SC(C)(C)[C@@H]3C(=O)O)c2ccc(O)c(O)c2)C(=O)C1=O [BB-P 660, Sodium 6-[L-α-(4-ethyl-2,3-dioxo-1-piperazinocarboxamido)-α-3,4-dihydroxyphenylacetamido]penicillanate] | 7.2 | 39 | 4000 | 7.3 | 200 | 22 | 6 | 26 | 12.5 | 0.8 | 12.5 | 6.3 | > 100 | 12.5 | > 100 | 6.3 | > 100 | > 100 | almost as active as each other | > 100 | potency against gram-positive bacteria, compared with piperacillin (gram-positive bacteria): less potent than piperacillin; gram-negative activity, compared among the three isomers (gram-negative bacteria): considerably decreased activity
CCN1CCN(C(=O)N[C@@H](C(=O)N[C@@H]2C(=O)N3[C@@H]2SC(C)(C)[C@@H]3C(=O)O)c2ccc(O)c(O)c2)C(=O)C1=O [BB-P 661, Sodium 6-[D-α-(4-ethyl-2,3-dioxo-1-piperazinocarboxamido)-α-(3,4-dihydroxyphenyl)acetamido]penicillinate] | 1.8 | 28 | 4000 | 6.25 | 3030 | 22 | 178 | 418 | 0.4 | 0.025 | 1.6 | 6.3 | 0.4 | 12.5 | 12.5 | 0.4 | 0.8 | 25 | almost as active as each other | 0.8 | times more active than piperacillin against cephalothin-sensitive gram-negative organisms ([4]; versus piperacillin): about 8 times; activity compared with piperacillin against cephalothin-resistant strains ([5]; in words): slightly less active; activity compared with piperacillin against Pseudomonas ([6]; in words): slightly less active; potency against gram-positive bacteria, compared with piperacillin (gram-positive bacteria): less potent than piperacillin; gram-negative activity, compared among the three isomers (gram-negative bacteria): the most active of the three isomers; antipseudomonal activity (Pseudomonas): exhibited antipseudomonal activity
CC1(C)S[C@@H]2[C@H](NC(=O)C(C(=O)O)c3ccccc3)C(=O)N2[C@H]1C(=O)O (some centres unmarked) [carbenicillin, reference compound] | – | – | – | – | – | – | – | – | 0.8 (≈ 2.11 µM) | 1.6 (≈ 4.23 µM) | 1.6 (≈ 4.23 µM) | 0.2 (≈ 0.529 µM) | 1.6 (≈ 4.23 µM) | 3.1 (≈ 8.19 µM) | 25 (≈ 66.1 µM) | 3.1 (≈ 8.19 µM) | > 100 | – | – | 100 (≈ 264 µM) | –
CCN1CCN(C(=O)N[C@@H](C(=O)N[C@@H]2C(=O)N3[C@@H]2SC(C)(C)[C@@H]3C(=O)O)c2ccccc2)C(=O)C1=O [piperacillin, reference compound] | 3.3 | 29 | 4900 | 0.8 | 360 | 56 | 224 | 637 | 0.8 (≈ 1.55 µM) | 0.8 (≈ 1.55 µM) | 1.6 (≈ 3.09 µM) | 0.8 (≈ 1.55 µM) | 0.4 (≈ 0.773 µM) | 3.1 (≈ 5.99 µM) | 3.1 (≈ 5.99 µM) | – | 25 (≈ 48.3 µM) | 45 | – | 6.3 (≈ 12.2 µM) | half-life ([2]; sc, 20 mg/kg, route: sc (footnote 2)): 44 min; Blood Level peak conc. ([2]; im, listed as B-P 606, 20 mg/kg): 6200 ng/mL and 9000 ng/mL; Blood Level half life ([2]; route: sc (footnote 2), listed as B-P 606, 20 mg/kg): 30 min; MIC (E. coli Juhl [8]): 1.6 µg/mL (≈ 3.09 µM); PD50 (Ps. aerug. A9843; listed as B-P 606): 35 mg/kg and 25 mg/kg and 40 mg/kg

Reference: patent publication US4206116A, “Novel penicillins” (Bristol-Myers Company, priority 1978, dated 1980)
